Data set [1] in a line: Pharmacokinetics and organ accumulation of mitoxantrone after i.v. injection (HPLC). In kind it is in vivo. The note with it: i.v. tail vein, nude mice, blood mitoxantrone by HPLC. The protocol:
AVE95-MXR liposomes were injected i.v. into the tail veins of nude mice and blood concentration of mitoxantrone was determined by HPLC at varying time points. In this experiment we included unencapsulated mitoxantrone. AVE95-MXR caused a prolonged serum residence time of mitoxantrone (50% value = 110 min) compared to unencapsulated mitoxantrone which was rapidly cleared from circulation (50% value = < 3 min) (Fig. 8). […] Mitoxantrone concentrations in the liver and spleen were similar to free mitoxantrone.

In data set [2] the test system is C26 murine colon carcinoma. The data set can be described thus: Pharmacodynamics of mitoxantrone liposomes in C26 tumor model. In kind it is in vivo, nude mice. The note with it: mitoxantrone dose of 4 mg/kg at days 0, 2 and 5. As to the method:
Efficacy of AVE95-MRX was analyzed in a C26 murine colon carcinoma model. For this purpose tumor cells were injected subcutaneously into nude mice. After tumors had reached a size of approximately 50-100 mm^3, tumor-bearing mice were treated with mitoxantrone-loaded liposomes injecting a mitoxantrone dose of […] or 4 mg/kg body weight at days 0, 2 and 5. Unencapsulated mitoxantrone was included in these experiments. […] However, at this dose tumor growth was further reduced for AVE95-encapsulated mitoxantrone compared to free mitoxantrone (Fig. 9). This improved efficacy compared to free mitoxantrone was also observed at a mitoxantrone concentration of […].

Data set [3] is described as follows: Pharmacokinetics of doxorubicin in blood after i.v. injection (HPLC). In kind it is in vivo. The note with it: i.v. tail vein, nude mice, blood doxorubicin by HPLC. As to the method:
AVE9-dox and AVE95-dox were injected i.v. into the tail veins of nude mice and blood concentration of doxorubicin was determined by HPLC at varying time points. In this experiment we included unencapsulated doxorubicin as well as doxorubicin encapsulated into pegylated "stealth liposomes" (Doxil®). Compared to AVE9-dox AVE95-dox caused a prolonged serum residence time of doxorubicin (50% value of 11 min for AVE9-dox versus 23 min for AVE95-dox). Unencapsulated dox was rapidly cleared from the circulation (50% value = < 3 min). In contrast, after injection of Doxil® more than 50% of initial doxorubicin was present in the blood after 6 hours (Fig. 4). […] Doxorubicin concentrations in the liver and spleen were increased 3-fold after applying AVE95-dox compared to free doxorubicin.

Data set [4] deals with C26 murine colon carcinoma. As to the kind of experiment: Pharmacodynamics of doxorubicin liposomes in C26 tumor model. In kind it is in vivo, nude mice. As to the method:
For further studies pharmacodynamic experiments in a C26 murine colon carcinoma model were performed. For this purpose tumor cells were injected subcutaneously into nude mice. After tumors had reached a size of approximately 50-100 mm^3 tumor-bearing mice were treated with doxorubicin-loaded liposomes injecting a doxorubicin dose of 4 mg/kg body weight at days 1, 3 and 6.
In a first experiment AVE9-dox and AVE95-dox (see example 10) were compared to unencapsulated doxorubicin. In this experiment we observed reduced tumor growth and a prolonged survival time for animals treated with AVE95-dox compared to animals treated with AVE9-dox or free doxorubicin. […] The difference between free doxorubicin and AVE95-dox at day 12 was statistically significant (p = 0.05). This was also reflected by the mean survival time which was 20 days for AVE95-dox treated animals, 16 days for AVE9-dox treated animals, 14 days for doxorubicin-treated animals, and 12 days for untreated animals.
In a second experiment free doxorubicin was compared to AVE95-dox, when administered either at 4 or at 8 mg/kg body weight to C26-tumor-bearing mice. […] In contrast, tumor growth was further reduced using 8 mg/kg AVE95-dox compared to […] AVE95-dox.
In a third experiment AVE95-dox was compared to Doxil® for the treatment of C26 tumors applying a dose of 4 mg/kg.
In a final set of experiments, AVE95-dox liposomes were compared to a AVE95-based formulation containing varying sphingomyelin concentrations. Firstly, AVE95-dox was compared to the same formulation in which sphingomyelin was substituted by phosphatidylcholine (AVE95-0SM-dox). […] Secondly, AVE95-dox was compared to liposomes consisting of 50 mol% cholesterol, 30 mol% sphingomyelin and 20 mol% phosphatidylcholine. Thus, this formulation contained the same cholesterol concentration but approximately twice as much sphingomyelin as AVE95 liposomes.

SMILES strings stand for the structures. Bounds are passed on as bounds.

Turning to `O=C1c2c(O)ccc(O)c2C(=O)c2c(NCCNCCO)ccc(NCCNCCO)c21` [mitoxantrone, Mitoxantrone], the “50% value (serum residence time of mitoxantrone)” value in data set [1] is reported as less than 3 min. In addition, the “inhibition of tumor growth” value in data set [2] is given as “strong inhibition of tumor growth”.

Turning to `COc1cccc2c1C(=O)c1c(O)c3c(c(O)c1C2=O)C[C@@](O)(C(=O)CO)C[C@@H]3O[C@H]1C[C@H](N)[C@H](O)[C@H](C)O1` [doxorubicin], the “50% value (serum residence time of doxorubicin)” value in data set [3] is listed as less than 3 min. Also, in data set [4] (4 mg/kg at days 1, 3 and 6, first experiment), the “tumor growth compared to untreated control animals” value was “reduced tumor growth compared to untreated control animals”. Also, in data set [4] (at 8 mg/ml (so in the source), C26-tumor-bearing mice), the lethality entry was “increased lethality”. The molecule also showed a mean survival time in data set [4] (doxorubicin 4 mg/kg body weight at days 1, 3 and 6, first experiment) of 14 days. Besides, in data set [4] (second experiment, 4 or 8 mg/kg body weight), the “tumor growth at 8 mg/kg compared to 4 mg/kg” value is recorded as “No differences in tumor growth”.
